Patent US6723897B2, “Methods for controlling gibberellin levels” (Monsanto Technology, LLC, priority 1998, dated 2004)

Tests used:
[1] = Half-lives of 14C-labelled GA compounds in planta; conditions: Asgrow 3237, soybean (Glycine max), in vivo
Experimental: ^14C-radiolabelled compounds are obtained from Lew Mander (Australian National University). ^14C-GA3 is dissolved in water:ethanol, 80:20, v/v; ^14C-GA9 and ^14C-GA12 are dissolved in 100% ethanol. Seeds of Asgrow 3237 soybeans are treated separately with solutions of each of the ^14C-radiolabelled compounds (1.7-6.8 μg; 10-40 ppm; 111,000-2,000,000 dpm/seed) by placing one to four μl of the dosing solution directly on the seed coat (^14C-GA3, GA9, and GA12), or on the hilum portion of the seed (^14C-GA3). After evaporation of the carrier solvent (approx. one hour), the treated seed is planted in containers containing approximately 30 gm of Metromix-350, and transferred to a growth chamber. Plants are grown under a 12 hour light/12 hour dark regime at 92° F. (33° C.)and 75% humidity. The pattern of uptake and translocation of ^14C-radioactivity in treated seed is monitored up to 12 days past initial treatment. For most experiments, three replicate plants are harvested at one hour after treatment, one day after treatment (DAT), two DAT, three DAT, six or seven DAT, and 12 DAT. […] The level of ^14C-radioactivity in different plant parts is determined by extraction of plant tissues with aqueous methanol and scintillation counting. The extent of metabolism of the ^14C-labelled GA compounds in planta is determined by HPLC analysis of plant extracts. […]
The general extraction procedure consisted of blending the plant parts in a high speed polytron tissue homogenizer for 1-5 minutes with 10-20 ml of ice-cold methanol:water, 80:20, v/v, followed by vacuum filtration through a Whatman glass fiber filter. The filter cake is re-extracted as necessary using the procedure described above until an insignificant amount of radioactivity is removed. Prior to combining the extracts from each sample, aliquots are weighed and analyzed by liquid scintillation counting (LSC) to determine the amount of extracted radioactivity in each extract. Aliquots of the air-dried filter cakes are combusted and analyzed by LSC in order to determine the amount of non-extracted radioactivity. […]

[2] = system: non-transgenic soybean line A4922; assay: Field trial of seed coatings under soil compaction / different soils, wild-type soybean; format: in vivo, Glycine max; conditions: for Count (emergence) / Height (total plant height): A4922
Experimental: The second trial (data reported in Tables 22-24) tested the precursors under conditions of soil compaction.
As noted above, the second trial tested the noted precursors under conditions of soil compaction. These experiments are performed in the same manner as in the first trial, except that the soil is compacted with an all-terrain vehicle.
“Height” equals total plant height in cm.

[3] = Particulate material present in solutions after mixing; format: physicochemical
Experimental: Each of the compounds noted above is weighed to the nearest 0.1 mg in a pre-tarred 1.5-ml polypropylene vial with a screw-top lid. Absolute ethanol is added to the weighed powder to prepare a 25 mg/ml solution. Solutions are thoroughly mixed using a vortex mixer. A stainless steel spatula is used to crush any particulate material remaining after extensive mixing. Vials are left overnight at room temperature, and then remixed to form the concentrated ethanol stock solutions. The presence of undissolved material is noted throughout this procedure.

[4] = Heavy soil - Loose, target rate 0.5 μg/seed, Table 23
[5] = Heavy soil - Loose, target rate 4.0 μg/seed, Table 23
[6] = Heavy soil - Loose, target rate 8.0 μg/seed, Table 23
[7] = Heavy soil - Loose, target rate 16.0 μg/seed, Table 23
[8] = Heavy soil - compacted, target rate 0.5 μg/seed, Table 23
[9] = Heavy soil - compacted, target rate 4.0 μg/seed, Table 23
[10] = Heavy soil - compacted, target rate 8.0 μg/seed, Table 23
[11] = Heavy soil - compacted, target rate 16.0 μg/seed, Table 23
[12] = Heavy soil - loose, target rate 0.5 μg/seed, Table 22
[13] = Heavy soil - loose, target rate 2.0 μg/seed, Table 22
[14] = Light soil - Compacted, target rate 0.5 μg/seed, Table 22
[15] = Light soil - Compacted, target rate 2.0 μg/seed, Table 22
[16] = Light soil - Loose, target rate 0.5 μg/seed, Table 24
[17] = Light soil - Loose, target rate 2.0 μg/seed, Table 24
[18] = Light soil - Loose, target rate 4.0 μg/seed, Table 24
[19] = Light soil - compacted, target rate 0.5 μg/seed, Table 24
[20] = Light soil - compacted, target rate 2.0 μg/seed, Table 24
[21] = Light soil - compacted, target rate 4.0 μg/seed, Table 24
[22] = Heavy soil - Loose, target rate 2.0 μg/seed, Table 23
[23] = Heavy soil - compacted, target rate 2.0 μg/seed, Table 23

SMILES | Count (emergence) [2, 4] | Height (total plant height) [2, 4] | Count (emergence) [2, 5] | Height (total plant height) [2, 5] | Count (emergence) [2, 8] | Height (total plant height) [2, 8] | Count (emergence) [2, 9] | Count (emergence) [2, 12] | Height (total plant height) [2, 12] | Count (emergence) [2, 13] | Height (total plant height) [2, 13] | Count (emergence) [2, 14] | Height (total plant height) [2, 14] | Count (emergence) [2, 15] | Height (total plant height) [2, 15] [c cm] | Count (emergence) [2, 16] | Height (total plant height) [2, 16] | Count (emergence) [2, 17] | Height (total plant height) [2, 17] | Count (emergence) [2, 18] | also measured
C=C1C[C@]23C[C@@]1(O)CC[C@H]2[C@@]12C=C[C@H](O)[C@@](C)(C(=O)O1)[C@H]2[C@@H]3C(=O)O [GA3, gibberellic acid] | 25.0 cde | 5.0 efg cm | 24.7 de | 8.7 a cm | 8.3 cd | 4.3 b-e cm | 4.0 de | 25 cde | 5.0 efg cm | 21 ef | 6.7 bcd cm | 28 bcd | 5.7 def cm | 13 ef | 8.0 | 43.0 abc | 7.0 ef cm | 38.3 bc | 9.0 cd cm | 37.7 c | half-life [1]: 48 to 72 h; Count (emergence) [2, 6]: 29.3 a-d; Height (total plant height) [2, 6]: 6.3 cde cm; Count (emergence) [2, 7]: 24.7 dc; Height (total plant height) [2, 7]: 7.0 bc cm; Height (total plant height) [2, 9]: 8.0 a cm; Count (emergence) [2, 10]: 9.7 a-d; Height (total plant height) [2, 10]: 6.0 bc cm; Count (emergence) [2, 11]: 6.3 cde; Height (total plant height) [2, 11]: 6.7 ab cm; Height (total plant height) [2, 18]: 10.3 b cm; Count (emergence) [2, 19]: 28.3 bcd; Height (total plant height) [2, 19]: 5.7 def cm; Count (emergence) [2, 20]: 12.7 ef; Height (total plant height) [2, 20]: 8.0 c cm; Count (emergence) [2, 21]: 7.7 f; Height (total plant height) [2, 21]: 10.3 b cm; emergence at approximately equivalent biological response (height) ([2]; compacted soil, FIG. 40): 68%
C=C1C[C@]23C[C@@]1(O)CC[C@H]2[C@@]12C=C[C@H](OC(C)=O)[C@@](C)(C(=O)O1)[C@H]2[C@@H]3C(=O)O [GA3-3-acetate] | 29.0 a-d | 5.3 g·cm·days | 7 | 8.0 ab cm | 4.0 de | 5.3 b-e cm | 0 e | 29 a-d | 5.3 g·cm·days | 15 f | 6.0 c-f cm | 28 bcd | 6.3 cm·days | 18 def | 8.7 | 44.3 abc | 6.3 f cm | 42.0 abc | 9.7 bc cm | 42.3 abc | Count (emergence) [2, 22]: 15.3 f; Height (total plant height) [2, 22]: 6.0 c-f cm; Count (emergence) [2, 23]: 6.0 cde; Height (total plant height) [2, 23]: 5.7 bcd cm; Height (total plant height) [2, 18]: 10.3 b cm; Count (emergence) [2, 19]: 27.7 cd; Height (total plant height) [2, 19]: 6.3 cm·days; Count (emergence) [2, 20]: 18.0 def; Height (total plant height) [2, 20]: 8.7 c cm; Count (emergence) [2, 21]: 22.7 dc; Height (total plant height) [2, 21]: 11.0 ab cm; plant height dose/response in wild-type line A4922 (FIG. 40) ([2]; in vivo): dose/response curves similar to that of GA3
C=C1C[C@]23C[C@@]1(O)CC[C@H]2[C@@]12CC=C[C@@](C)(C(=O)O1)[C@H]2[C@@H]3C(=O)O [GA5] | 32.0 abc | 5.3 g·cm·days | 26.7 b-e | 9.0 a cm | 13.7 abc | 4.7 cde cm | 6.7 cde | 32 abc | 5.3 g·cm·days | 25 cde | 6.7 bcd cm | 37 abc | 6.7 cm·days | 22 de | 9.0 | 44.7 ab | 6.0 fg·cm | 41.0 abc | 10.0 bc cm | 43.3 abc | Count (emergence) [2, 22]: 24.7 de; Height (total plant height) [2, 22]: 6.7 bcd cm; Count (emergence) [2, 23]: 9.0 bcd; Height (total plant height) [2, 23]: 6.7 ab cm; Height (total plant height) [2, 9]: 6.7 ab cm; Height (total plant height) [2, 18]: 12.7 a cm; Count (emergence) [2, 19]: 36.7 abc; Height (total plant height) [2, 19]: 6.7 cm·days; Count (emergence) [2, 20]: 21.7 de; Height (total plant height) [2, 20]: 9.0 c cm; Count (emergence) [2, 21]: 18.7 def; Height (total plant height) [2, 21]: 11.7 a cm; plant height dose/response in wild-type line A4922 (FIG. 40) ([2]; ten days after planting, compacted soil): dose/response curves similar to that of GA3
C=C1C[C@@]23CC[C@H]4[C@@](C)(CCC[C@@]4(C)C(=O)O)[C@@H]2CC[C@@H]1C3 [kaurenoic acid] |  |  |  |  |  |  |  |  |  |  |  |  |  |  |  |  |  |  |  |  | Particulate material present, 100X Diln w/water ([3]; 0.25 mg/ml compound in water): YES; solubility in water during imbibition ([3]; 0.25 mg/ml treatment solutions): less soluble in water during imbibition
